Measurements from US9457033B2, “Steroid alkaloids and uses thereof as antimicrobial agents against electron transport-deficient microbes and as potentiators for antimicrobial agents against pathogenic bacteria” (priority 2011, dated 2016).
≈ marks a conversion by molar mass, not a printed value.

Assays:
[1] = test system: S. aureus ATCC 29213; test: MICs of control antibiotics for macromolecular biosynthesis assays; assay type: cell-based; details: Staphylococcus aureus, ATCC29213; ATCC 29213; data not shown; read-out: MIC
[2] = test system: protein, DNA, RNA and cell wall peptidoglycan biosynthesis in ATCC 29213; test: Macromolecular biosynthesis assay, incorporation of radiolabeled precursors; assay type: cell-based, Staphylococcus aureus; details: control antibiotics at approximately 4×MIC; FIG. 3A
[3] = test system: S. aureus ATCC 29213; test: MIC, microdilution in BHI 48 h (Examples 1, 3); assay type: cell-based, Staphylococcus aureus
[4] = test system: S. aureus Newbould (normal strain); test: MIC, microdilution in BHI 48 h; assay type: cell-based, Staphylococcus aureus; details: Newbould, normal strain
[5] = test system: S. aureus SCV NewbouldΔhemB; test: MIC, microdilution in BHI 48 h; assay type: cell-based, Staphylococcus aureus; details: NewbouldΔhemB, SCV
[6] = test system: S. aureus CF07-L (normal strain); test: MIC, microdilution in BHI 48 h (Examples 1, 3); assay type: cell-based, Staphylococcus aureus
[7] = test system: S. aureus SCV CF07-S; test: MIC, microdilution in BHI 48 h (Examples 1, 3); assay type: cell-based, Staphylococcus aureus
[8] = test system: S. aureus CF1A-L (normal strain); test: MIC, microdilution in BHI 48 h; assay type: cell-based, Staphylococcus aureus; details: CF1A-L, normal strain
[9] = test system: S. aureus SCV CF1D-S; test: MIC, microdilution in BHI 48 h; assay type: cell-based, Staphylococcus aureus; details: CF1D-S, SCV
[10] = test system: S. aureus SCVs (NewbouldΔhemB, CF07-S and CF1D-S); test: MIC, microdilution in BHI 48 h, summary for SCVs; assay type: cell-based, Staphylococcus aureus; details: all SCVs of Table 1

For `O=C(N[C@H](CO)[C@H](O)c1ccc([N+](=O)[O-])cc1)C(Cl)Cl` [chloramphenicol], the MIC [1] was 8 to 16 µg/mL (≈ 24.8 to 49.5 µM) and the “incorporation of radiolabeled precursors into the targeted macromolecules” value [2] was “preferentially inhibited”.

In the case of `C[C@H]1CC[C@]2(NC1)O[C@H]1C[C@H]3[C@@H]4CC[C@H]5C[C@@H](O[C@@H]6O[C@H](CO)[C@H](O[C@@H]7O[C@H](CO)[C@@H](O)[C@H](O[C@@H]8OC[C@@H](O)[C@H](O)[C@H]8O)[C@H]7O[C@@H]7O[C@H](CO)[C@@H](O)[C@H](O)[C@H]7O)[C@H](O)[C@H]6O)CC[C@]5(C)[C@H]4CC[C@]3(C)[C@H]1[C@@H]2C` [Tomatine, tomatine], the MIC ([3]; ATCC 29213 + HQNO at 20 μg/ml) is reported as >16 µg/mL, the MIC ([3]; ATCC 29213, without HQNO) is reported as >16 µg/mL and the MIC ([3]; ATCC 29213 in BHI) is reported as >16 µg/mL. For the same molecule, the MIC ([3]; ATCC 29213 in MHBCA) was >16 µg/mL, the MIC [4] was >16 µg/mL and the MIC [5] was >16 µg/mL. The MIC ([6]; CF07-L + HQNO at 20 μg/ml) was >16 µg/mL, the MIC ([6]; CF07-L, normal strain) was >16 µg/mL and the MIC ([6]; CF07-L, without HQNO) was >16 µg/mL. For the same molecule, the MIC ([7]; CF07-S + HQNO at 20 μg/ml) was >16 µg/mL, the MIC ([7]; CF07-S, SCV) was >16 µg/mL and the MIC ([7]; CF07-S, without HQNO) was >16 µg/mL. The MIC [8] was >16 µg/mL, the MIC [9] was >16 µg/mL and the “MIC against all SCVs” value [10] was “no MIC was observed”.
